# Key:
# [1] = tested on: nephritis rat models; test: Nephritis rat model induced by anti-glomerular basement membrane antibody: kidney function markers and kidney pathology; type: in vivo; conditions: for urine protein: 24-hour urine on 7th day from induction
# [2] = tested on: casein kinase 2 α subunit; test: Western blot of casein kinase 2 α subunit protein in kidney tissue of nephritis rats given oligonucleotides; type: in vivo, rat; conditions: 12 μg/day into kidney tissue by Alzet pump from one day before induction to 7th day
# Procedure: This example was carried out for studying the effect of administration of an antisense oligonucleotide against casein kinase 2 α subunit, so as to confirm the utility of the present invention. To rats (Wistar-Kyoto strain, male, body weight 190 to 210 g), rabbit anti-glomerular basement membrane antibody was intravenously administered (0.3 ml/kg) to induce nephritis. […] The nucleic acid molecules of the oligonucleotides were S-oligonucleotides containing phosphorothioate moieties, and a cationic liquid (Polyplus transfection) was used for making the uptake of the oligonucleotide easier. More particularly, the groups used in the experiment were normal group (normal rats to which the antisense oligonucleotide against casein kinase 2 α subunit and the antisense oligonucleotide were not administered, n=8), nephritis control group (nephritis rats to which the antisense oligonucleotide against casein kinase 2 α subunit and the antisense oligonucleotide were not administered, n=8), nephritis+antisense oligonucleotide against casein kinase 2 α subunit-administered group (group of the present invention, nephritis rats to which the antisense oligonucleotide against casein kinase 2 α subunit was administered, n=4), and nephritis+sense oligonucleotide of casein kinase 2 α subunit-administered group (negative control group, nephritis rats to which the sense oligonucleotide of casein kinase 2 α subunit was administered), totally four groups. On the 7th day from the induction, all rats were placed in metabolic cages, and urine excreted during 24 hours was collected and the amount of the urine was measured. The urine was then centrifuged at 3000 rpm for 15 minutes, and the urine protein in the supernatant was measured. Further, after the collection of urine, the kidneys were isolated, proteins were extracted from each kidney tissue by a conventional method, and the proteins (1 mg/ml, 20 μl) were electrophoresed (PAGERUN, ATTO, 40 mA, 84 min) on 12.5% polyacrylamide gel (PAGEL, ATTO). The electrophoresed proteins were blotted (100V, 90 min) on a PVDF membrane (Millipore). The membrane was blocked (Blocking Ace, Dainippon Pharmaceutical, 4° C., 1 hour), and washed three times (10 min) with PBS containing Tween 20. Then the membrane was incubated (at room temperature for 1 hour) with an anti-casein kinase 2 α subunit (originated from goat, Santa cruz, 100-fold diluted) as the primary antibody. […] After the incubation, the amounts of the casein kinase 2 α subunit protein were measured, respectively, using ECL reagent (Amersham). This measurement was carried out by taking photographs of the detected casein kinase 2 so as to make image files of the amount of the casein kinase 2 protein, and digitalizating the image file using a software NIH Image on Macintosh.
# [3] = oligonucleotide 12 μg/day into kidney tissue, FIG. 2
molecule,measurement,setting,value
5′-GTAATCATCTTGATTACCCCA-3′ (chemistry not given here),urine protein,[1]; [3],significantly decreased
same,Protein Amount Ratio of Casein Kinase 2 α Subunit,[2]; no-oligonucleotide kidney = 1,prominently decreased
same,Protein Amount Ratio of Casein Kinase 2 α Subunit,"[2]; no-oligonucleotide kidney = 1, listed as Antisense Oligonucleotide",0.45
5′-TGGGGTATCAATCAAGATGATTAC-3′ (chemistry not given here) [negative control],urine protein,[1]; [3],did not significantly decrease
same,Protein Amount Ratio of Casein Kinase 2 α Subunit,[2]; no-oligonucleotide kidney = 1,did not decrease
same,Protein Amount Ratio of Casein Kinase 2 α Subunit,"[2]; no-oligonucleotide kidney = 1, listed as Sense Oligonucleotide",1.07
"Cc1cc(O)c2c(c1)C(=O)c1cc(O)cc(O)c1C2=O [3-methyl-1,6,8-trihydroxyanthraquinone]",blood creatinine level,"[1]; 20 mg/l kg body weight intraperitoneally once a day, 14th day from induction, FIG. 6",almost normalized
same,urine protein,"[1]; 20 mg/l kg body weight intraperitoneally once a day, FIG. 5",significantly decreased
same,pathological finding of the kidney tissue,"[1]; 20 mg/l kg body weight intraperitoneally once a day, hematoxylin-eosin-stained specimens",improvements in the glomeruli and in the renal tubule interstitium were observed
O=c1cc(-c2ccc(O)cc2)oc2cc(O)cc(O)c12 [apigenin],urine protein,"[1]; apigenin 20 mg/l kg body weight intraperitoneally once a day, FIG. 4",significantly decreased

# — patent publication US20080269155A1, “REMEDY OR PREVENTIVE FOR KIDNEY DISEASE AND METHOD OF DIAGNOSING KIDNEY DISEASE” (TORAY INDUSTRIES INC., priority 2002, published 2008)
